Settings: 101.33 kPa, Liquid

CN(CCO)CCO [N-methyldiethanolamine]
Settings | mass density [kg/m3]
298.15 K | 1038.22
303.15 K | 1034.49
308.15 K | 1030.75
313.15 K | 1026.99
318.15 K | 1023.25
323.15 K | 1019.47
328.15 K | 1015.64
333.15 K | 1011.8
338.15 K | 1007.92

From the NIST ThermoML archive (doi:10.1021/je800416y)
